Columns and labels:
[1] = test system: monoclonal antibody 5-21-3; assay: Immuno-dot blot of synthetic peptides with 5-21-3; type: binding, mouse; conditions: 25 ug/ml 5-21-3; mild washing procedures
Text: The western Blot procedure described in Example 1 was employed for development of immuno-dot blots using synthetic peptides, except that synthetic peptides were fixed to nitrocellulose by direct application using Drummond lambda pipettes, and air dried prior to blocking with 20% fetal calf serum in PBS (pH 7.4).

[2] = test system: monoclonal antibody 5-21-3; assay: Immunoprecipitation of [125I] synthetic peptides by 5-21-3; type: binding, mouse; conditions: for SPECIFIC PRECIPITATION (CPM) by 5-21-3 / x-fold increase of specific over non-specific precipitation, 5-21-3: 5-21-3 10 μg/0.2 ml, second antibody precipitation; for SPECIFIC PRECIPITATION (CPM) by 5-21-3: PBS, 0.1% Triton X-100, 1.0% BSA, carrier serum; for x-fold increase of specific over non-specific precipitation, 5-21-3: vs normal mouse IgG
Experimental: (§1) Synthetic peptides were radiolabeled with ^125I (Amersham) by the chloramine T method (N. M. Hunter, “Radioimmunoassay” in D. M. Weir, Ed., Handbook of Experimental Immunology, [Blackwell Scientific Publications, 1973]). Generally, 2-6 ul of 100 mCi/ml ^125I were added to 10-50 ug of peptide in PBS, pH 7.4. Approximately 10 ug of freshly prepared (1 mg/ml in PBS) chloramine T were added to the mixture maintained at 4° C. After 5 min., [^125I]peptide was separated from free ^125I by passage of the reaction mixture through a 3 ml (bed volume) column of Biogel P-6 or P-2, as required. Fractions (200 ul each) containing [^125I]peptide were pooled and diluted into PBS containing 20% fetal calf serum. Rough estimations of ^125I cpm bound to peptide were made by acid precipitation. An aliquot of labeled peptide was diluted into 1 ml of ice cold 50% trichloroacetic acid (TCA) overlaying a 0.45 um filter (made of mixed cellulose esters) set on a scintered glass filter connected to a vacuum apparatus. Precipitated protein was fixed onto the filter by application of vacuum, and filters were washed with ice-cold 50% TCA. Background cpm adhering non-specifically to the filter were estimated by repeating the procedure using a non-precipitating buffer. Amounts of peptide, ^125I, chloramine T, and composition of column eluting buffer were subject to change depending on conditions required to maintain solubility of each peptide.
(§2) Synthetic peptides radiolabeled with ^125I were diluted into PBS (pH 7.4) containing 0.1% Triton X-100 (or other detergents where indicated) and 1.0% BSA, to yield approximately 2.5-5×10^5 acid-precipitable cpm per 0.1 ml. Purified monoclonal IgG 5-21-3 and 10-15-63 were employed in the assay. Monoclonal antibodies were diluted into PBS containing 0.1% Triton X-100 (or other detergents where indicated), 1.0% BSA, and 2% normal mouse serum as a carrier immunoglobulin. Immune rabbit serum (anti-P58-130) was diluted appropriately into the same buffer except that normal rabbit serum (2%) was substituted for normal mouse serum as the carrier immunoglobulin. A reaction mixture comprising 0.1 ml [^125I] peptide (5×10^5 cpm/0.1 ml) and 0.1 ml diluted antibody was incubated 1 hr at 40° C., followed by addition of 0.1 ml of a precipitating antibody, either goat anti-mouse IgG, or goat anti-rabbit IgG, corresponding to the primary antibody. The reaction mixture was incubated 1 hr at 40° C. and then overnight at 4° C. […] Precipitation assays employing Protein A-Sepharose as the precipitating reagent were performed in a similar manner, except that normal sera were omitted from the reaction mixtures.

[3] = test system: monoclonal antibody 10-15-63; assay: Immunoprecipitation of [125I] synthetic peptides by 10-15-63; type: binding, mouse; conditions: for SPECIFIC PRECIPITATION (CPM) by 10-15-63 / x-fold increase of specific over non-specific precipitation, 10-15-63: 10-15-63 10 μg/0.2 ml, second antibody precipitation; for SPECIFIC PRECIPITATION (CPM) by 10-15-63: PBS, 0.1% Triton X-100, 1.0% BSA, carrier serum; for x-fold increase of specific over non-specific precipitation, 10-15-63: vs normal mouse IgG
Experimental: as §1, §2

[4] = test system: Rabbit (R) anti-P58-130 serum; assay: Immunoprecipitation of [125I] synthetic peptides by rabbit anti-P58-130 serum; type: binding; conditions: rabbit anti-P58-130 serum 20 ul/0.2 ml, second antibody precipitation; for x-fold increase of specific over non-specific precipitation, RαP58-130: vs normal rabbit serum
Experimental: as §1, §2

[5] = test system: binding of antibody 5-21-3 to rp41; assay: Binding inhibition assay: peptides inhibit binding of 5-21-3 to rp41; design: species or system HIV I; conditions: for Molar Ratio at 50% inhibition of 5-21-3 binding: mean of two experiments, 0.4 pmol 5-21-3 IgG per well
Experimental: Additional evidence for the conformationl nature of the 5-21-3 epitope was obtained using binding inhibition studies, in which synthetic peptides were ranked for their ability to inhibit binding of 5-21-3 to rp41. First, the Fab dimer of an anti-gp41 monoclonal antibody was prepared by conventional methods (Goding et al., supra). Then 100 ul of a 1 mg/ml solution of the Fab dimer in bicarbonate buffer (pH 9.6) was coated onto Immulon II microtiter plates for 1 hr at 37° C. After washing with PBS containing 0.05% Tween 20, the plates were overcoated with 200 ul of 1.0% ovalbumin in bicarbonate buffer (pH 9.6) for 1 hr at 30° C. After washing, 100 ul of rp41 enriched E. coli lysate (as described in Example 3), diluted appropriately in PBS containing 0.05% Tween 20, were allowed to bind to the Fab dimer for 2 hr at 30° C. The plates were washed and stored at 4° C.
Intact monoclonal antibody 5-21-3 IgG (purified from tissue culture fluid supporting growth of the cloned cell line 5-21-3) was titrated against the bound rp41 on the plate, and an antibody concentration was selected which yielded an A492 value of 2.0-3.0. Usually, 0.4 pmol (0.06 ug) of 5-21-3 IgG per microtiter well was employed in these assays. Stock solutions of 5-21-3 IgG were prepared in PBS containing 0.1% Triton X-100 and 0.1% SDS. Dilutions of synthetic peptides were made in the same buffer (SDS was included in these experiments to keep peptides soluble at high concentrations).
The binding inhibition assay was performed by combining 0.15 ml of 1.2 ug/ml 5-21-3 antibody stock solution with 0.15 ml of peptide at a selected peptide concentration, and incubating the reaction mixture 1 hr at room temp. Then 0.1 ml aliquots of each reaction mixture were added to each of two wells in the microtiter tray. After a 1 hr incubation at room temp., the plates were washed, and HRPO conjugated Goat anti-mouse IgG Fc was added for 1 hr at room temp. The plates were washed, and addition of OPD for color development identified the relative amounts of 5-21-3 bound to rp41 in the microtiter wells. The reaction was stopped by addition of 100 ul of 1N H2SO4, and the plates were read on a Dynatech II microtiter plate reader.

| Sequence | binding of [125I]peptide by 5-21-3 (immunoprecipitation), in words [2] | SPECIFIC PRECIPITATION (CPM) ([2]; 5-21-3 1.0 μg/ml final) | x-fold increase of specific over non-specific precipitation ([2]; 5-21-3 1.0 μg/ml final) | SPECIFIC PRECIPITATION (CPM) by 5-21-3 [2] | x-fold increase of specific over non-specific precipitation, 5-21-3 [2] | SPECIFIC PRECIPITATION (CPM) ([2]; 5-21-3 10.0 μg/ml final) | x-fold increase of specific over non-specific precipitation ([2]; 5-21-3 10.0 μg/ml final) | SPECIFIC PRECIPITATION (CPM) ([2]; 5-21-3 100.0 μg/ml final) | x-fold increase of specific over non-specific precipitation ([2]; 5-21-3 100.0 μg/ml final) | SPECIFIC PRECIPITATION (CPM) ([3]; 10-15-63 1.0 μg/ml final) | x-fold increase of specific over non-specific precipitation ([3]; 10-15-63 1.0 μg/ml final) | SPECIFIC PRECIPITATION (CPM) by 10-15-63 [3] [CPM] | x-fold increase of specific over non-specific precipitation, 10-15-63 [3] | SPECIFIC PRECIPITATION (CPM) ([3]; 10-15-63 10.0 μg/ml final) | x-fold increase of specific over non-specific precipitation ([3]; 10-15-63 10.0 μg/ml final) | SPECIFIC PRECIPITATION (CPM) ([3]; 10-15-63 100.0 μg/ml final) | SPECIFIC PRECIPITATION (CPM) by RαP58-130 [4] [CPM] | x-fold increase of specific over non-specific precipitation, RαP58-130 [4] | inhibition of 5-21-3 binding to rp41, in words [5] | Molar Ratio at 50% inhibition of 5-21-3 binding [5] | also measured |
| --- | --- | --- | --- | --- | --- | --- | --- | --- | --- | --- | --- | --- | --- | --- | --- | --- | --- | --- | --- | --- | --- |
| YNYTSLIHSLIEESQNQQEKNEQELLELDKWANLWNWL [P126-162] | recognized by 5-21-3 | 0 | (0) x-fold | 11,540 CPM | (3.4) x-fold | 295 | (1.1) x-fold | 4,924 CPM | (1.6) x-fold | 0 | (0) x-fold | 0 | (<1) x-fold | 0 | (0) x-fold | 0 | 0 | (<1) x-fold | roughly equivalent to that of P121-154 | 1,585 pmoles peptide/pmoles 5-21-3 | immuno-dot blot reactivity with 5-21-3 [1]: additional 5-21-3 reactivity was observed; x-fold increase of specific over non-specific precipitation ([3]; 10-15-63 100.0 μg/ml final): (0) x-fold |
| IHSLIEESQNQQEKNEQELLELDKWANLWNWLNITNWLWYIKLFI [P131-175] | Little or no binding activity |  |  | 317 CPM | (1.6) x-fold |  |  |  |  |  |  | 188 | (1.4) x-fold |  |  |  | 0 | (<1) x-fold | definite inhibitor | 18,815 pmoles peptide/pmoles 5-21-3 |  |
| IHSLIEESQNQQEKNEQELLELDK [P131-154] | unable to bind | 0 | (0) x-fold | 970 CPM | (1.1) x-fold | 0 | (0) x-fold | 0 CPM | (0) x-fold | 0 | (0) x-fold | 0 | (<1) x-fold | 0 | (0) x-fold | 112 | 0 | (<1) x-fold | could not be demonstrated | >50,000 pmoles peptide/pmoles 5-21-3 | 5-21-3 concentration required to demonstrate binding of the peptide ([2]; immunoprecipitation, Table 5): could not be demonstrated; x-fold increase of specific over non-specific precipitation ([3]; 10-15-63 100.0 μg/ml final): (1.1) x-fold |
